# Source: patent US6875737B1, “Multivalent compounds for crosslinking receptors and uses thereof” (Trustees of Tufts College, priority 1996, dated 2005)
# Read-outs that look alike come from different tables or passages of the source. Marks after values point to notes of the source that are not given here. Ends that are not written are not given here.
# Assays:
# [1] = system: Dipeptidyl Peptidase IV (DP IV, CD26); assay: Inhibition of DP IV (CD26) proteinase activity, Ki; format: biochemical; settings: soluble DP IV (CD26)
# Description: Assays to measure CD26 (DP IV) activity will be performed on both the homobivalent compounds, e.g., Lys-boroPro coupled to another, and the heterobivalent compounds, e.g., Lys-boroPro coupled to a peptide specific for a T cell surface receptor, e.g., moth cytochrome C peptide. Methods for quantitatively measuring the interaction of small peptidomimetic inhibitors with CD26 or DP IV, as well as for the interaction of CD26 with larger ligands, e.g., the HIV Tat protein, have been developed (W. G. Gutheil and W. W. Bachovchin. Separation of L-Pro-DL-boroPro into Its Component Diastereomers and Kinetic analysis of Their Inhibition of Dipeptidyl Peptidase IV. A New Method for the Analysis of Slow, Tight-Binding Inhibition, Biochemistry 32, 8723-8731 (1993); Gutheil, W. G., and W., B. W. Kinlsq, A Matlab Program for Fitting Kinetics Data with Numerically Integrated Rate Equations and Its Application to the Analysis of Slow, Tight Binding Data, Analytical Biochemistry 223, 13-20 (1994); Gutheil, W. G., Subramanyam, M., Flentke, G. R., Sanford, D. G., Munoz, E., Huber, B. T., and Bachovchin, W. W. HIV-1 Tat Binds to DP IV (CD26): A possible Mechanism for Tat's Immunosuppressive Activity, Proc. Natl. Acad. Sci. U.S.A. 91, 6594-6598 (1994)). These methods use the chromatogenic substrate Ala-Pro-p-nitroanilide (APpNA) and fluorescent substrate Ala-Pro-7-amino-4-trifluoromethyl coumarin (AP-AFC). APpNA and AP-AFC are commercially available (e.g., Enzyme Systems Products, Dublin, Calif.).
# [2] = Conformational equilibrium of cyclic and open chain forms; format: physicochemical; settings: at equilibrium at pH 7.0
# Description: G. Gutheil and W. W. Bachovchin, separation of L-Pro-DL-boroPro into Its Component Diastereomers and Kinetic Analysis of Their Inhibition of Dipeptidyl Peptidase IV. A New Method for the Analysis of Slow, Tight-Binding Inhibition, Biochemistry 32, 8723-8731 (1993)).
# [3] = mice; cited from earlier work
# [4] = system: T cell clone 2E5.G10.G5.E5; assay: T cell clone proliferation, thymidine uptake; format: cell-based
# Method: (§1) The proliferative effect of PLP-S-KbP on several different T cell clones that recognize PLP 139-151 were tested. T cell clones that recognize an irrelevant epitope, were used as negating controls. The protocol used is described (Kuchroo, V. K., et al., B7-1 and B7-2 Costimulatory Molecules Activate Differentially the Th1/Th2 Developmental Pathways: Application to Autoimmune Disease Therapy, Cell 80, 707-718 (1995)) and is incorporated herein by reference. Proliferation was measured by thymidine uptake. Table 1 below compares the effect PLP-S-KbP, antigenic PLP 139-151 peptide and non-antigenic PLP 103-116 peptide has on proliferation in different five PLP 139-151 specific T cell clones.
# [5] = system: T cell clone 4E3.B11.D9.H10.H6; assay: T cell clone proliferation, thymidine uptake; format: cell-based
# Method: as §1
# [6] = system: T cell clone 5B8.G8.E6.H12; assay: T cell clone proliferation, thymidine uptake; format: cell-based
# Method: as §1
# T cell clone 7A5.F10.G11 = assay: T cell clone proliferation, thymidine uptake; format: cell-based
# Method: as §1
# [7] = system: T cell clone SPL.C1.H2.F2; assay: T cell clone proliferation, thymidine uptake; format: cell-based
# Method: as §1
# [8] = system: Dipeptidyl Peptidase IV (DP IV, CD26); settings: cited from earlier work
# H9 cells [9] = assay: IL-2 production by H9 cells stimulated with anti-CD3 mAb OKT3 (HT2 bioassay); format: cell-based
# Method: To determine the effect KbP2-Adipate had on anti-CD3 mAb stimulation of H9 cells, e.g., stimulation of suppressing IL-2 production, the following protocol was used.
# In quadruplicate wells, H9 cells were preincubated with KbP2-Adipate for 0, 30, 60, or 150 min. After the preincubation, the cells were seeded into a 96 well flatbottom plate pre-coated with anti-CD3 monoclonal antibody OKT3 at 1,000, 5,000, 10,000, 20,000, 50,000, or 100,000 times dilution of stock. After 24 hr, the cells were lysed by freezing at […]. IL-2 concentration in the H9 cells lysates was bioassayed using the IL-2 dependent cell line HT2, Watson, J. D. “Continuous proliferation of murine antigen specific helper T lymphocytes in culture,” 1979, Journal of Experimental Medicine, 150:1510. HT2 proliferation was measured by counting 3H-thymidine incorporation.
# Similar experiments were carried out with (KbP)2-EGS and the co-stimulatory antibody OKT3; the results of these experiments are shown in FIG. 12.
# H9 cells [10] = assay: H9 cell viability, trypan blue hemocytometry counts and flow cytometry; format: cell-based
# Description: Possible explanations for the observed inhibitory activity shown in FIG. 3 were eliminated with proper negative controls.
molecule,measurement,setting,value
"NCCCC[C@H](N)C(=O)N1CCC[C@H]1B(O)O (single isomer, unassigned) [L,L isomer, Lys-boroPro]",DP IV inhibition,[1],inhibitory
CC(C)C(N)C(=O)N1CCCC1B(O)O (stereo not shown) [Val-boroPro],"fraction existing as open chain, inhibitory species",[2],less than 0.1%
"CC(N)C(=O)N1CCCC1B(O)O [L-Ala-D,L-boroPro]",DP IV inhibition,[1],potent inhibitors
"NCCCC[C@H](N)C(=O)N1CCC[C@H]1B(O)O (single isomer, unassigned) [L,D isomer, Lys-boroPro]",DP IV inhibition,[1],non inhibitory
C[C@H](N)C(=O)N1CCC[C@H]1B(O)O [Ala-boroPro],immune response in vivo (antibody production after antigen challenge),[3],inhibited an immune response in vivo in mice
"HSLGKWLGHPDKFAAAAAA-εKbP (not fully specified (C-terminus); printed as HSLGKWLGHPDKFAAAAAA-εKbP; also: C-terminus joined to epsilon-amino of Lys, which carries boroPro) [PLP-S-KbP, Lys-boroPro linked by its ε-amino group via six alanines to the C terminus of PLP 139-151]","proliferation, thymidine uptake",[4]; dose 0.1 μM,175 ^3H counts
same,"proliferation, thymidine uptake",[4]; dose 1 μM,"7,738 ^3H counts"
same,"proliferation, thymidine uptake",[4]; dose 10 μM,"26,410 ^3H counts"
same,"proliferation, thymidine uptake",[4]; dose 100 μM,"36,686 ^3H counts"
same,"proliferation, thymidine uptake",[5]; dose 0.1 μM,"3,688 ^3H counts"
same,"proliferation, thymidine uptake",[5]; dose 1 μM,"8,580 ^3H counts"
same,"proliferation, thymidine uptake",[5]; dose 10 μM,"15,753 ^3H counts"
same,"proliferation, thymidine uptake",[5]; dose 100 μM,"17,608 ^3H counts"
same,"proliferation, thymidine uptake",[6]; dose 1 μM,"22,022 ^3H counts"
same,"proliferation, thymidine uptake",[6]; dose 10 μM,"53,628 ^3H counts"
same,"proliferation, thymidine uptake",[6]; dose 100 μM,"34,716* ^3H counts"
same,"proliferation, thymidine uptake",T cell clone 7A5.F10.G11; dose 0.1 μM,187 ^3H counts
same,"proliferation, thymidine uptake",T cell clone 7A5.F10.G11; dose 1 μM,"8,202 ^3H counts"
same,"proliferation, thymidine uptake",T cell clone 7A5.F10.G11; dose 10 μM,"35,521 ^3H counts"
same,"proliferation, thymidine uptake",T cell clone 7A5.F10.G11; dose 100 μM,"43,999 ^3H counts"
same,"proliferation, thymidine uptake",[7]; dose 0.1 μM,681 ^3H counts
same,"proliferation, thymidine uptake",[7]; dose 1 μM,"2,527 ^3H counts"
same,"proliferation, thymidine uptake",[7]; dose 10 μM,"17,516 ^3H counts"
same,"proliferation, thymidine uptake",[7]; dose 100 μM,"31,635 ^3H counts"
"HSLGKWLGHPDKF [PLP 139-151, peptide corresponding to residues 139-151 of myelin proteolipid protein]","proliferation, thymidine uptake",[4]; dose 0.1 μM,101 ^3H counts
same,"proliferation, thymidine uptake",[4]; dose 1 μM,288 ^3H counts
same,"proliferation, thymidine uptake",[4]; dose 10 μM,70 ^3H counts
same,"proliferation, thymidine uptake",[4]; dose 100 μM,"1,506 ^3H counts"
same,"proliferation, thymidine uptake",[5]; dose 0.1 μM,318 ^3H counts
same,"proliferation, thymidine uptake",[5]; dose 1 μM,125 ^3H counts
same,"proliferation, thymidine uptake",[5]; dose 10 μM,534 ^3H counts
same,"proliferation, thymidine uptake",[5]; dose 100 μM,"1,932 ^3H counts"
same,"proliferation, thymidine uptake",[6]; dose 0.1 μM,106 ^3H counts
same,"proliferation, thymidine uptake",[6]; dose 1 μM,349 ^3H counts
same,"proliferation, thymidine uptake",[6]; dose 10 μM,"9,176 ^3H counts"
same,"proliferation, thymidine uptake",[6]; dose 100 μM,"41,073 ^3H counts"
same,"proliferation, thymidine uptake",T cell clone 7A5.F10.G11; dose 0.1 μM,117 ^3H counts
same,"proliferation, thymidine uptake",T cell clone 7A5.F10.G11; dose 1 μM,222 ^3H counts
same,"proliferation, thymidine uptake",T cell clone 7A5.F10.G11; dose 10 μM,406 ^3H counts
same,"proliferation, thymidine uptake",T cell clone 7A5.F10.G11; dose 100 μM,"2,324 ^3H counts"
same,"proliferation, thymidine uptake",[7]; dose 0.1 μM,423 ^3H counts
same,"proliferation, thymidine uptake",[7]; dose 1 μM,107 ^3H counts
same,"proliferation, thymidine uptake",[7]; dose 10 μM,400 ^3H counts
same,"proliferation, thymidine uptake",[7]; dose 100 μM,809 ^3H counts
OB(O)C1CCCN1 (stereo not shown) [boroPro],DP IV inhibition,[8],not an effective inhibitor
"O=C(C1CCCN1)N1CCCC1B(O)O [L-Pro-D,L-boroPro]",DP IV inhibition,[1],potent inhibitors
O=C(C1CCCN1)N1CCCC1B(O)O (stereo not shown) [Pro-boroPro],"fraction existing as open chain, inhibitory species",[2],less than 1%
same,immune response in vivo (antibody production after antigen challenge),[3],inhibited an immune response in vivo in mice
PLP103-116: non-antigenic PLP 103-116 peptide (DYKTTICGKGLSAT),"proliferation, thymidine uptake",[4]; dose 0.1 μM,307 ^3H counts
same,"proliferation, thymidine uptake",[4]; dose 1 μM,434 ^3H counts
same,"proliferation, thymidine uptake",[4]; dose 10 μM,60 ^3H counts
same,"proliferation, thymidine uptake",[4]; dose 100 μM,107 ^3H counts
same,"proliferation, thymidine uptake",[5]; dose 0.1 μM,178 ^3H counts
same,"proliferation, thymidine uptake",[5]; dose 1 μM,559 ^3H counts
same,"proliferation, thymidine uptake",[5]; dose 10 μM,224 ^3H counts
same,"proliferation, thymidine uptake",[5]; dose 100 μM,274 ^3H counts
same,"proliferation, thymidine uptake",[6]; dose 0.1 μM,124 ^3H counts
same,"proliferation, thymidine uptake",[6]; dose 1 μM,226 ^3H counts
same,"proliferation, thymidine uptake",[6]; dose 10 μM,74 ^3H counts
same,"proliferation, thymidine uptake",[6]; dose 100 μM,143 ^3H counts
same,"proliferation, thymidine uptake",T cell clone 7A5.F10.G11; dose 0.1 μM,556 ^3H counts
same,"proliferation, thymidine uptake",T cell clone 7A5.F10.G11; dose 1 μM,314 ^3H counts
same,"proliferation, thymidine uptake",T cell clone 7A5.F10.G11; dose 10 μM,117 ^3H counts
same,"proliferation, thymidine uptake",T cell clone 7A5.F10.G11; dose 100 μM,124 ^3H counts
same,"proliferation, thymidine uptake",[7]; dose 0.1 μM,238 ^3H counts
same,"proliferation, thymidine uptake",[7]; dose 1 μM,123 ^3H counts
same,"proliferation, thymidine uptake",[7]; dose 10 μM,479 ^3H counts
same,"proliferation, thymidine uptake",[7]; dose 100 μM,150 ^3H counts
"N[C@@H](CCCCNC(=O)CCCCC(=O)NCCCC[C@H](N)C(=O)N1CCC[C@H]1B(O)O)C(=O)N1CCC[C@H]1B(O)O [KbP2-Adipate, di(L-Lysine-L-boroProline)adipate]",shape of dose response on IL-2 production,H9 cells [9],decreases with increasing KbP2-Adipate concentrations
same,suppression of IL-2 production,"H9 cells [9]; 4.0×10^−10 M, anti-CD3 mAb stimulation of H9 cells (FIG. 4)",98%
same,concentration range where stimulatory effect begins,H9 cells [9]; FIG. 5,~1 pM
same,concentration range where stimulatory effect saturates,H9 cells [9]; FIG. 5,~10 mM
same,augmentation of IL-2 production (co-stimulatory activity),"H9 cells [9]; higher concentrations (FIG. 5), depends on concentration and preincubation time",up to 4 fold
same,effect on IL-2 production,"H9 cells [9]; higher concentrations, e.g. 10^−6 M (FIG. 5)",potent stimulator
same,effect on IL-2 production,"H9 cells [9]; lower concentrations, e.g. 10^−10 M (FIG. 4)",potent inhibitor
same,cell viability,H9 cells [10],did not affect cell viability
